Data: ChEMBL document CHEMBL1141914

The compounds below were run against T1, Prostaglandin G/H synthase 1 (Ovis aries) (UniProt P05979) (assay: Percent inhibition against Prostaglandin G/H synthase 1 from ram seminal vesicles at 100 uM).
T1 sequence (whole entry): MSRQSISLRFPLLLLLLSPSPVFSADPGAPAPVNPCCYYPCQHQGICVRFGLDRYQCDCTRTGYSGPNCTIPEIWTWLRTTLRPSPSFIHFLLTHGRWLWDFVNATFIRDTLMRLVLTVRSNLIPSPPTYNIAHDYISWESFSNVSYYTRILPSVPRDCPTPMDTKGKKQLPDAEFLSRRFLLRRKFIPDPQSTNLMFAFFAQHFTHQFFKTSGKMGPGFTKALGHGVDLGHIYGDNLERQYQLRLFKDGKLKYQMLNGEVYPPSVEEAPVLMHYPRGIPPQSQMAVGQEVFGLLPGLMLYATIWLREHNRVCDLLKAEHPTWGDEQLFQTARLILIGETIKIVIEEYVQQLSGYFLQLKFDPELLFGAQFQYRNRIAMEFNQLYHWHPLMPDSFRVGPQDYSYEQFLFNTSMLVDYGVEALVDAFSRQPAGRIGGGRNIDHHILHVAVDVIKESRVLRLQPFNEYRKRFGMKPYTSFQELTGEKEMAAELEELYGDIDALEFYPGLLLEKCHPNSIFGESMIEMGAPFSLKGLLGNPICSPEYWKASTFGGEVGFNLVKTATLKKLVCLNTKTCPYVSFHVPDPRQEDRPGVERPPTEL

Row | inhibition [%] | SMILES
1 | 80.5 | COc1cc(/C=C/C(=O)CC(=O)/C=C/c2ccc(O)c(OC)c2)ccc1O
2 | 47.4 | COc1cc(/C=C/c2cc(/C=C/c3ccc(O)cc3)on2)ccc1O
3 | 87 | COc1cc(/C=C/c2cc(/C=C/c3ccc(O)c(OC)c3)[nH]n2)ccc1O
4 | 44.4 | Oc1ccc(/C=C/c2cc(/C=C/c3ccc(O)cc3)[nH]n2)cc1

The next lines start with the compound.

Row | SMILES | inhibition [%]
5 | COc1cc(/C=C/c2cc(/C=C/c3ccc(O)cc3)[nH]n2)ccc1O | 73.9
6 | COc1cc(/C=C/C(O)=C/C(=O)/C=C/c2ccc(O)cc2)ccc1O | 67.8
7 | COc1cc(/C=C/c2cc(/C=C/c3ccc(O)c(OC)c3)on2)ccc1O | 80.8
8 | O=C(/C=C/c1ccc(O)cc1)CC(=O)/C=C/c1ccc(O)cc1 | 41.7
